In publication PMC5041986 (Oncotarget, 2016):

Assays:
Format in all cases: cell-based
[1] = test system: RT-112 cells; experiment: MTT cell viability assay; settings: 72 h, mean
Description: (§1) Cells were seeded in 96-well plates and exposed to DMSO, or indicated compounds for 72 hours. Cell viability was assessed using the 3-(4,5-dimethylthiazol-2-yl)-2,5-diphenyltetrazolium bromide (MTT) assay as described previously [46]. Briefly, 100 μl of 0.5 mg/ml MTT were added to each well and incubated at 37°C for 1 hour. After that, 100 μl of extraction reagents (0.1 M sodium acetate buffer for suspension cells or DMSO for attached cells) were added to each well to lyse cells and absorbance at 550 nm was measured. Cell viability was expressed as the percentage of surviving cells in drug-treated versus DMSO-treated control cells (which was considered as 100% viability).

[2] = test system: RT-112 cells; experiment: SA-β-galactosidase staining (senescence)
Description: Cells were seeded in 6-well plates and treated with indicated agents for 24h. Senescence was measured by Senescence β-Galactosidase Staining Kit according to the manufacture's instruction (Cell Signaling Technology, Danvers, MA, USA).

[3] = test system: RT-112 cells; experiment: Flow cytometric cell cycle analysis; settings: 48 h to 72 h, flow cytometry
Description: Cells were seeded in 6-well plates and treated with DMSO or indicated compounds at various concentrations for the indicated times. After treatment, the cells were harvested by trypsinization, washed with PBS, and the pellets were fixed in ice-cold 70% ethanol at -20°C overnight. After centrifugation, the cells were incubated for 15 minutes at room temperature in 0.1 mL of phosphate-citric acid buffer (0.2 M NaHPO4, 0.1 M citric acid, and pH 7.8) and then stained with propidium iodide staining buffer containing Triton X-100 (0.1%, v/v), RNase A (100 μg/mL), and propidium iodide (80 μg/mL) for 30 minutes in the dark. DNA contents were analyzed by flow cytometry with CellQuest software (Becton Dickinson, Mountain View, CA, USA). The results were obtained from three independent experiments and the representative data were shown in Supplementary Figure S8 and S9.

[4] = test system: PLC/PRF/5 cells; experiment: MTT cell viability assay; settings: PLC5/PRF/5, 5 μM, 72 h, mean
Description: as §1

[5] = test system: Hep3B cells; experiment: MTT cell viability assay; settings: 72 h, mean
Description: as §1

[6] = test system: SNU-16 cells; experiment: MTT cell viability assay; settings: SNU-16, 5 μM, 72 h, mean
Description: as §1

Q: Which “Viability (% of control cells) RT-112 (10 μM)” value [1] does the source give for `COc1c(Cl)c(NC(=O)N(C)c2cc(-c3cccc([N+](=O)[O-])c3)ncn2)c(Cl)c(OC)c1Cl` [MPT0L151] here?
A: Its value is 63.8 % of control cells.

Q: `COc1c(Cl)c(NC(=O)N(C)c2cc(-c3cccc(C#N)c3)ncn2)c(Cl)c(OC)c1Cl` [MPT0L150] was tested. Which “Viability (% of control cells) RT-112 (10 μM)” value [1] did it give?
A: Its value is 75.0 % of control cells.

Q: With `COc1cccc2c1C(=O)c1c(O)c3c(c(O)c1C2=O)C[C@@](O)(C(=O)CO)C[C@@H]3O[C@H]1C[C@H](N)[C@H](O)[C@H](C)O1` [doxorubicin, reference compound] as the compound, how does the “senescence (β-galactosidase activity)” value [2] read?
A: Its value is “increased β-galactosidase activity”.

Q: With `CC(=O)O[C@H]1C(=O)[C@@]2(C)[C@H]([C@H](OC(=O)c3ccccc3)[C@]3(O)C[C@H](OC(=O)[C@H](O)[C@@H](NC(=O)c4ccccc4)c4ccccc4)C(C)=C1C3(C)C)[C@]1(OC(C)=O)CO[C@@H]1C[C@@H]2O` [paclitaxel] as the compound, how does the “accumulation of the sub-G1 phase (apoptotic cell death)” value [3] read?
A: Its value is “induced pronounced apoptosis”.

Q: `CCN1CCN(c2ccc(-c3cc(N(C)C(=O)Nc4c(Cl)c(OC)c(Cl)c(OC)c4Cl)ncn3)cc2)CC1` [MPT0L182] was tested. Which “Viability (% of control cells) RT-112 (5 μM)” value ([1]; RT-112, 5 μM) did it give?
A: Its value is 95.6 % of control cells.

Q: What about the “Viability (% of control cells) RT-112 (10 μM)” value [1] of the same compound?
A: Its value is 8.6 % of control cells.

Q: And the “Viability (% of control cells) PLC5/PRF/5 (5 μM)” value [4]?
A: The value was 78.3 % of control cells.

Q: What about the “Viability (% of control cells) Hep3B (5 μM)” value [5] of the same compound?
A: The value was 96.3 % of control cells.

Q: And the “Viability (% of control cells) SNU-16 (5 μM)” value [6]?
A: Its value is 63.2 % of control cells.

Q: With `COc1c(Cl)c(NC(=O)N(C)c2cc(-c3cccnc3)ncn2)c(Cl)c(OC)c1Cl` [MPT0L147] as the compound, how does the “Viability (% of control cells) RT-112 (10 μM)” value [1] read?
A: The value was 85.0 % of control cells.

Q: For `COc1c(Cl)c(NC(=O)N(C)c2cc(-c3ccco3)ncn2)c(Cl)c(OC)c1Cl` [MPT0L154], which “Viability (% of control cells) RT-112 (10 μM)” value [1] is on record?
A: Its value is 76.1 % of control cells.
